Values after ≈ are worked out from the molar mass of the structure shown.
What was measured:
[1] = visual solubility test (apparent solubility in different excipients); type: physicochemical; conditions: for solubility: thermodynamic from solid
Description: Subsequently in order to analyze the solubility of the anilinopyrimidine of Formula (I) and to identify the preferred excipients, ten solutions of batch FD050007 and ten solution of the starting batch 61569-02 were prepared and analized with a visual solubility test.
A data summary for the anilinopyrimidine derivative of Formula (I) apparent solubility in different excipients is given in Table 2.

[2] = test system: primary fresh cells from Acute Myeloid Leukemia (AML) patients; conditions: most primary fresh cells from AML patients; cited from earlier work
[3] = in Cremophor EL (castor oil-ethylene oxide)
[4] = in Labrafil M1944CS (oleoyl macrogol glyceride)

Row | solubility ([1]; Capmul GMO-50, oil or lipid, in Capmul GMO-50) [mg/mL] | solubility ([1]; Capmul MCM C10 (glyceril monocaprate), oil or lipid, in Capmul MCM C10 (glyceril monocaprate)) [mg/mL] | solubility ([1]; Capmul MCM-Lutrol E600 1:1, organic solvent or mixture, in Capmul MCM-Lutrol E600 1:1) [mg/mL] | solubility ([1]; Lutrol E600 (PEG 600), organic solvent or mixture, in Lutrol E600 (PEG 600)) [mg/mL] | apparent solubility [1, 3] | apparent solubility [1, 4] | apparent solubility ([1]; in Labrasol (caprylocapryoyl macrogol glyceride)) | apparent solubility ([1]; in Transcutol HP) | apparent solubility ([1]; in Vitamin E TPGS) | solubility ([1]; HP-β-CD, aqueous with cosolvent or surfactant or cyclodextrin, in HP-β-CD) [mg/mL] | solubility ([1]; Labrasol (caprylocapryoyl macrogol glyceride), oil or lipid, in Labrasol (caprylocapryoyl macrogol glyceride)) [mg/mL] | solubility ([1]; Transcutol HP, organic solvent or mixture, in Transcutol HP) [mg/mL] | apparent solubility ([1]; in Capmul GMO-50) [mg/mL] | apparent solubility ([1]; in Capmul MCM C10 (glyceril monocaprate)) [mg/mL] | apparent solubility ([1]; in Capmul MCM-Lutrol E600 1:1) [mg/mL] | apparent solubility ([1]; in Lutrol E600 (PEG 600)) [mg/mL] | solubility, milled versus starting batch ([1]; in particular in Capmul MCM C10, Lutrol E600 and Capmul MCM-Lutrol E600 1:1) | Structure (SMILES) | cell death [2]
1 | 20.2 | 59.5 | 115 | 104 | Suspension | Suspension | Suspension | Suspension | Solid | – | – | – | – | – | – | – | – | CC(=O)N1CCN(C(=O)c2ccc(Nc3nccc(-c4ccc(Cl)cc4)n3)cc2)CC1 [Formula 61569-02, 1-(4{4-[4-(4-Chloro-phenyl)-pyrimidin-2-ylamino]-benzoyl}-piperazin-1-yl)-ethanone] | –
2 | – | – | – | – | Suspension | Suspension | – | – | Solid | 5.75 (≈ 13.2 mM) | 26.3 (≈ 60.3 mM) | 26.2 (≈ 60.1 mM) | 19.6 | 54 | 115 | 115 | – | CC(=O)N1CCN(C(=O)c2ccc(Nc3nccc(-c4ccc(Cl)cc4)n3)cc2)CC1 [FD050007, 1-(4{4-[4-(4-Chloro-phenyl)-pyrimidin-2-ylamino]-benzoyl}-piperazin-1-yl)-ethanone] | –
3 | – | – | – | – | – | – | – | – | – | – | – | – | – | – | – | – | better solubility when milled | CC(=O)N1CCN(C(=O)c2ccc(Nc3nccc(-c4ccc(Cl)cc4)n3)cc2)CC1 [Formula (I), 1-(4{4-[4-(4-Chloro-phenyl)-pyrimidin-2-ylamino]-benzoyl}-piperazin-1-yl)-ethanone] | induces cell death
